Here are results for 3 compounds from article PMC12430079, “Comprehensive UPLC-MS/MS Method for Quantifying Four Key Intestinal Permeability Markers in Caco-2 Models” (Molecules, 2025).

Like-named read-outs stand apart in the source and are kept apart here.

In one data set the test system is Caco-2 cells. The following applies: 4 h, 37 °C.
A further data set in a line: physchem. The following applies: Recovery under stability condition. On the procedure:
These tests included assessing short-term stability at room temperature, long-term stability during storage at −20 °C for up to 45 days, and stability across three freeze-thaw cycles. Additionally, the stability of the analytes was tested in the media used for intestinal permeability assays, specifically HBSS with MES and HEPES buffers at pH 6.0 and 7.4.

The subject of a further data set is Caco-2 cell monolayer. The following applies: Caco-2 monolayer, apical pH 6.0 / basolateral pH 7.4, 4 h, without verapamil as inhibitor.
Another data set can be described thus: in vitro. The note with it: human, Caco-2.

With `CC(C)NCC(O)COc1ccc(CC(N)=O)cc1` (stereo not drawn) [Atenolol, atenolol], in the data set on Caco-2 cells (50 µM), the “Cytotoxicity (LDH release)” value is “did not induce cytotoxicity”.

The efflux ratio is the permeability from basolateral to apical divided by that in the opposite direction, in the common usage. For `CC(C)NCC(O)COc1cccc2ccccc12` (stereo not drawn) [Propranolol, propranolol], the “Cytotoxicity (LDH release)” value in the data set with Caco-2 cells (5 µM) is listed as “did not induce cytotoxicity”. Further, in “physchem”, the recovery turned out to be 86.5 ± 21% and the recovery at 36 d is 87.7 ± 5.12%. For the same compound, in the data set on Caco-2 cell monolayer, the “Apparent permeability (Papp) A→B” value is recorded as “high” and the “Apparent permeability (Papp) B→A” value is recorded as “high”. The efflux ratio in the data set “in vitro” is roughly 1.

For the compound `C=C[C@H]1C[N@@]2CC[C@H]1C[C@@H]2[C@@H](O)c1ccnc2ccc(OC)cc12` [Quinidine, quinidine], in the data set “physchem”, the recovery is 87.5 ± 6.3% and the recovery at 36 d turned out to be 86.2 ± 1.2%.
